The term pIC50 denotes the IC50 on a negative log10 scale, so that one unit is a factor of ten. Higher therefore signals a low IC50.

The record followed here is ChEMBL document CHEMBL3352525, “RET Kinase Inhibitors May Treat Cancer and Gastrointestinal Disorders” (ACS Med Chem Lett, 2015).

pIC50: −log10 of the molar value.

The target in assay [1] is T1, Proto-oncogene tyrosine-protein kinase receptor Ret (Homo sapiens, UniProt P07949). Put plainly: Inhibition of human RET kinase in TT cells by TRET Kinase cell-based mechanistic assay.
T1 sequence (P07949 whole entry, the tested form may be a part): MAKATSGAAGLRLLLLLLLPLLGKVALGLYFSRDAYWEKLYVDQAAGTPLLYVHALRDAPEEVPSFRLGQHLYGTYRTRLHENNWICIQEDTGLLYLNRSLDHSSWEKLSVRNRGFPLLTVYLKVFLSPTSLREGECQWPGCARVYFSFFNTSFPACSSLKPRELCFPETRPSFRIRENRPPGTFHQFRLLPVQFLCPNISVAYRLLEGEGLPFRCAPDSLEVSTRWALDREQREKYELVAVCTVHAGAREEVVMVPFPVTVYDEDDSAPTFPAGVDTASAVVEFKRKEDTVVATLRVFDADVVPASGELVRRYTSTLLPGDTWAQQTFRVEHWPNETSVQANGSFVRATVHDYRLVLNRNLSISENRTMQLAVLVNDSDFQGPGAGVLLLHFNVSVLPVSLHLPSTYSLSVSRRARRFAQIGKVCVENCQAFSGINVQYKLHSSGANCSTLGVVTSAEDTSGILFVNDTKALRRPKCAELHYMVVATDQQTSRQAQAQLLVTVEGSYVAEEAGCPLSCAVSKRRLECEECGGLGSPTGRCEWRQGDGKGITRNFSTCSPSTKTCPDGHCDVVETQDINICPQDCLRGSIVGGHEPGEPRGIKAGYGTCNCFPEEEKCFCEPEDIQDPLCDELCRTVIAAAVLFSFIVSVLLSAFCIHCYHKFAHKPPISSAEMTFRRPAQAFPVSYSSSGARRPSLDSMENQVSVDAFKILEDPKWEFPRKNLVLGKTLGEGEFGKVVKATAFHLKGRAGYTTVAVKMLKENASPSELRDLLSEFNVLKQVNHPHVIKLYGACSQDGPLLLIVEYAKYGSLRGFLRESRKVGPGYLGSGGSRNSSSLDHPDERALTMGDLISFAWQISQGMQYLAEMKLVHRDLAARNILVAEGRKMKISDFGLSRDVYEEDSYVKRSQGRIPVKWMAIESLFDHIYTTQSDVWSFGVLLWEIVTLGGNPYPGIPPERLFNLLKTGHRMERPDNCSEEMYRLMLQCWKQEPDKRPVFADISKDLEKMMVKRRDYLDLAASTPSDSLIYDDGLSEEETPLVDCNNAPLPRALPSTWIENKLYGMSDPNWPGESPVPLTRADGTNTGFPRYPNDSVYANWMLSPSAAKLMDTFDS
Assay [2] addresses T1, Proto-oncogene tyrosine-protein kinase receptor Ret. The assay is described as follows: Inhibition of human RET kinase cytoplasmic domain by Time-Resolved fluorescence reader assay.

Take `CCOc1cc(-c2ccc(CC(=O)Nc3ccc(Cl)c(Cl)c3)c(F)c2)c[nH]c1=O`: the pIC50 is < 6.30 in assay [1] and ≤ 7.00 in assay [2].
